Results from ChEMBL document CHEMBL1201862, “PubChem BioAssay data set” (2004).
Activity calls are given as the source filed them.

Assays:
[1] = target: ADP-ribosylation factor GTPase-activating protein 1 (Rattus norvegicus, UniProt Q62848); assay: Fluorescence polarization-based biochemical high throughput dose response screening assay to identify inhibitors of ADP-ribosylation factor GTPase activating protein 1 (ARFGAP1).; type: functional
[2] = target: DNA (cytosine-5)-methyltransferase 1 (Homo sapiens, UniProt P26358); assay: DNMT1 methyltransferase inhibitors, confirmation, biochemical, fluorescent molecular beacon (AID 602386); type: functional
DNA (cytosine-5)-methyltransferase 1, sequence (P26358 whole entry): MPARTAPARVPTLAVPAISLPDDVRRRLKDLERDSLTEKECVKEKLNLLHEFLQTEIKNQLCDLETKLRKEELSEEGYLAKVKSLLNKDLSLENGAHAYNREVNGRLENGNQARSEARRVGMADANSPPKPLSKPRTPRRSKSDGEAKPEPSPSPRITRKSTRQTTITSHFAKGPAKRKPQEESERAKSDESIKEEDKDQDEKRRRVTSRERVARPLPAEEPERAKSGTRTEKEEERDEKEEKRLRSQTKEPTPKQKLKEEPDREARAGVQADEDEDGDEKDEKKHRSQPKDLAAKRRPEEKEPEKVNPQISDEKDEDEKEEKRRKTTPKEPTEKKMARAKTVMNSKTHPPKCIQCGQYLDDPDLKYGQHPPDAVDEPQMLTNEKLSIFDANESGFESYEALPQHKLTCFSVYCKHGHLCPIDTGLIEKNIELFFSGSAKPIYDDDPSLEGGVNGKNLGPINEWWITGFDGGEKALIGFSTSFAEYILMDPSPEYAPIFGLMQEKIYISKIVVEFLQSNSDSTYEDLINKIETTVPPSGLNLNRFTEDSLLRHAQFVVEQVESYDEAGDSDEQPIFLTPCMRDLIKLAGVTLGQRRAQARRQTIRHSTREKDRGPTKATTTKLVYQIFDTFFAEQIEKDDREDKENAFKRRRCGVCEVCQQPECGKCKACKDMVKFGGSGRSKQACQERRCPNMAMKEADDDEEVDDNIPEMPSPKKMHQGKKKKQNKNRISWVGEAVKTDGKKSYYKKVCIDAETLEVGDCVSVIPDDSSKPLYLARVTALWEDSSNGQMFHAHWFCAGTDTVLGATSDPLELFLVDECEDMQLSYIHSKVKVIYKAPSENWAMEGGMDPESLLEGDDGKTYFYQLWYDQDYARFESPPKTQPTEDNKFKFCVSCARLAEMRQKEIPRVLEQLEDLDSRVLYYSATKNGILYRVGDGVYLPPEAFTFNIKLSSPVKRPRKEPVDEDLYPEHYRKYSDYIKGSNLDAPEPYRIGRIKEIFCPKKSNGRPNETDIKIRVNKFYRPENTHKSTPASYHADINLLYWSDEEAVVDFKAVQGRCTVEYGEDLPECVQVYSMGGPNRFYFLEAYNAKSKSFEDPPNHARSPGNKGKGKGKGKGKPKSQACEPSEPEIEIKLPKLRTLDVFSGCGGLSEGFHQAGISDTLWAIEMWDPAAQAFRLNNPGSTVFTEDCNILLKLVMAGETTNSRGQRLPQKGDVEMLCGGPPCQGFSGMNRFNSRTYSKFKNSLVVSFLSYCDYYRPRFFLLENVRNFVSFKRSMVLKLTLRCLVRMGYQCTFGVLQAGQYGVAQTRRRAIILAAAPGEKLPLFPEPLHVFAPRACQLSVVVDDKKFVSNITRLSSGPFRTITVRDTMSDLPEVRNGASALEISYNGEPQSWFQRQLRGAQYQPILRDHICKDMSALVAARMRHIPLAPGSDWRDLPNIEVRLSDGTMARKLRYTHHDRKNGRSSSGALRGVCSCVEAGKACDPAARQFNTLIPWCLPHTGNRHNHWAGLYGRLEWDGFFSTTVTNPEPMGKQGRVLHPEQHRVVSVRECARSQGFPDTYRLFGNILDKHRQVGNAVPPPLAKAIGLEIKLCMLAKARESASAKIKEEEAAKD

[3] = target: T1, Small ubiquitin-related modifier 1 (Homo sapiens, UniProt P63165); assay: inhibitors of SUMO1 peptide binding, dose response, biochemical, fluorescence polarization, uHTS hits (AID 624382); type: functional; conditions: read-out: IC50_Mean
T1 sequence (P63165 whole entry): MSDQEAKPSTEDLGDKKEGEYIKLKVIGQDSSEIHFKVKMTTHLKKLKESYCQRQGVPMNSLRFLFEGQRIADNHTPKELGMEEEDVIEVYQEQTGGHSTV

[4] = target: T1, Small ubiquitin-related modifier 1; assay: inhibitors of SUMO1 partner interactions, dose response, biochemical, FRET (AID 624383); type: functional; conditions: read-out: IC50_Mean
[5] = target: T2, Hexokinase HKDC1 (Homo sapiens, UniProt Q2TB90); assay: HKDC1 hexokinase inhibitors, dose response, biochemical, W721R variant (AID 504729); type: functional
T2 sequence (Q2TB90 whole entry): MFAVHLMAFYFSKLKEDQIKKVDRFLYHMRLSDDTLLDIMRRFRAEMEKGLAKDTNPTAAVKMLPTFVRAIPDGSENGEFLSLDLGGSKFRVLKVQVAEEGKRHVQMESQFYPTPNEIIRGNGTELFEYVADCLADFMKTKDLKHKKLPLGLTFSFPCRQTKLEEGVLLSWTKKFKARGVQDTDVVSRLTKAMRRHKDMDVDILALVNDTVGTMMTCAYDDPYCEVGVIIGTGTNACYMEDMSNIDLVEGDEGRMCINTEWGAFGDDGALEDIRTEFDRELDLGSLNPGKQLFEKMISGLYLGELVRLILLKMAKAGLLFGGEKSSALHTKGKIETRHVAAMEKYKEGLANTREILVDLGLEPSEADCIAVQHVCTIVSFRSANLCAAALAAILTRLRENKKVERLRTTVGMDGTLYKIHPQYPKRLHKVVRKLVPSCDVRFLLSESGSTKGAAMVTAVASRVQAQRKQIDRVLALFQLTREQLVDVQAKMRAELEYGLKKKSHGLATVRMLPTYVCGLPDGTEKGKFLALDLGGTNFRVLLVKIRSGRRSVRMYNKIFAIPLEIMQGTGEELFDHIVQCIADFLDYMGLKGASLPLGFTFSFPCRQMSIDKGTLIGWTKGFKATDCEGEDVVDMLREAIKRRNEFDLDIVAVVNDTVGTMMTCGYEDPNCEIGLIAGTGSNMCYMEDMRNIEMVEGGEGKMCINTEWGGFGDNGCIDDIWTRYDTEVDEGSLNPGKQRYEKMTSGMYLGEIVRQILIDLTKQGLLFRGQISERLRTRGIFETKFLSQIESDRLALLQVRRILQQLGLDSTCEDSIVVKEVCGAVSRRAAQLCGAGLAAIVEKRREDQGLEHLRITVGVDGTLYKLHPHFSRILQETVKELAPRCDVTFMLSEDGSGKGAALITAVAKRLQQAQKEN

[6] = target: T3, Tyrosine-protein phosphatase non-receptor type 22 (Homo sapiens, UniProt Q9Y2R2); assay: PTPN22 phosphatase inhibition, dose response, selectivity assay for STEP inhibitor project, biochemical (AID 624241); type: functional
T3 sequence (Q9Y2R2 whole entry): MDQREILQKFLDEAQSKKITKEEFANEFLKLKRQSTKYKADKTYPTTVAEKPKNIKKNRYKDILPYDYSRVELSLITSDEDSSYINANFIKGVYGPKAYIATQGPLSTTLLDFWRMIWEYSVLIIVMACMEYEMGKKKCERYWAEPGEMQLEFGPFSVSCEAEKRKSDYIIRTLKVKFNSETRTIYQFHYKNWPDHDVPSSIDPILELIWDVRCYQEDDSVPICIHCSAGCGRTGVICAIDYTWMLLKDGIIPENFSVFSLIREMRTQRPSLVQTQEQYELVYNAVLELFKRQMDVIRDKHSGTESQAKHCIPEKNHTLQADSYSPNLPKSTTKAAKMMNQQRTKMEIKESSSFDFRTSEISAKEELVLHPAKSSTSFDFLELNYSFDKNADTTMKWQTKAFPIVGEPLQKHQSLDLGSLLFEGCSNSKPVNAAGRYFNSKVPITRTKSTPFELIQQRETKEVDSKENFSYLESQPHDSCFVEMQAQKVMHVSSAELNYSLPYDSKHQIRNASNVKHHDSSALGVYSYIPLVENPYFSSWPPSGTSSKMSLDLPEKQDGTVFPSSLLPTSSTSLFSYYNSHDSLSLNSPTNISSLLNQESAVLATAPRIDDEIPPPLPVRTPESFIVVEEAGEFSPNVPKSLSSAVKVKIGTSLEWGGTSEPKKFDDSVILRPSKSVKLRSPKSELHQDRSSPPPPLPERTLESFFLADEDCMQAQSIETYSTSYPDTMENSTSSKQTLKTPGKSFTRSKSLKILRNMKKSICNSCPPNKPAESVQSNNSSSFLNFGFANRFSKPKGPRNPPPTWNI

[7] = target: T4, Carboxy-terminal domain RNA polymerase II polypeptide A small phosphatase 1 (Homo sapiens, UniProt Q9GZU7); assay: inhibitors of CTDSP1, concentration-response testing, biochemical assay, absorbance-based, actives from ultra-high-throughput screening (AID 540297); type: functional
T4 sequence (Q9GZU7 whole entry): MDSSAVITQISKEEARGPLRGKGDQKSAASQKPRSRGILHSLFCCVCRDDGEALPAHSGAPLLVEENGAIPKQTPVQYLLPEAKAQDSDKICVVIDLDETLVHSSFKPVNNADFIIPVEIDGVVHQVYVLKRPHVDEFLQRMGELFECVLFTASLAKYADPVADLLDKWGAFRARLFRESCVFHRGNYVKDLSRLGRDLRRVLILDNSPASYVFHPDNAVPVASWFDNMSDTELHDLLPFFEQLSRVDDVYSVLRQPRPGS

[8] = target: Tyrosine-protein phosphatase non-receptor type 11 (Homo sapiens, UniProt Q06124); assay: SHP2 phosphatase inhibition, dose response, selectivity assay for STEP inhibitor project, biochemical (AID 602367); type: functional; conditions: read-out: IC50_Mean
Tyrosine-protein phosphatase non-receptor type 11, sequence (Q06124 whole entry): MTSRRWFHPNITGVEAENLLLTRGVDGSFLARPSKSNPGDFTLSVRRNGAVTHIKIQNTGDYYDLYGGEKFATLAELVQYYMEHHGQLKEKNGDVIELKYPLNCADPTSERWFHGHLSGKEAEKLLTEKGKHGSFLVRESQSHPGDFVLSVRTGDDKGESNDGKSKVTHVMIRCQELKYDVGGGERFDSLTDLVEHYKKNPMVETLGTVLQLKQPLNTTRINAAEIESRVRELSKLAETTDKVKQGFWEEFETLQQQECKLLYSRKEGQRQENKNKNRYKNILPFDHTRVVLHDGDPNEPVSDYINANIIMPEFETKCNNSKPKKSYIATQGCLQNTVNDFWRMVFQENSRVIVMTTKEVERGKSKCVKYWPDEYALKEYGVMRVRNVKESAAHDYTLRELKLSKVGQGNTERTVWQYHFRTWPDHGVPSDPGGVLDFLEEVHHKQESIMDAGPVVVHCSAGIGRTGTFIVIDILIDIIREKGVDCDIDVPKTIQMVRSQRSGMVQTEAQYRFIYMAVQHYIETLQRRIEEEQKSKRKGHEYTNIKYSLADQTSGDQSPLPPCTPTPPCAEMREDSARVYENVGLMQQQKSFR

[9] = target: Tyrosine-protein phosphatase non-receptor type 5 (Homo sapiens, UniProt P54829); assay: STEP phosphatase inhibitors, confirmation, biochemical, fluorescence intensity, uHTS hits (AID 602372); type: functional; conditions: read-out: IC50_Mean
[10] = target: Dual specificity protein phosphatase 3 (Homo sapiens, UniProt P51452); assay: VHR phosphatase inhibition, dose response, selectivity assay for STEP inhibitor project, biochemical (AID 602374); type: functional; conditions: read-out: IC50_Mean
Dual specificity protein phosphatase 3, sequence (P51452 whole entry): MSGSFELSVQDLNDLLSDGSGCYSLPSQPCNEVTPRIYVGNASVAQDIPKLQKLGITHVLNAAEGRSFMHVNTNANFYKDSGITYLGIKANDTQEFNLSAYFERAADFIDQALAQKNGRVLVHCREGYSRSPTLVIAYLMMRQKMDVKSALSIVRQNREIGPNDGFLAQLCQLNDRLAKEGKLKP

[11] = target: T5, Low molecular weight phosphotyrosine protein phosphatase (Homo sapiens, UniProt P24666); type: functional; conditions: read-out: IC50_Mean;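 further: Dose-response confirmation assay measuring inhibition of LMPTP enzyme activity by fluorescence intensity read-out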
T5 sequence (P24666 whole entry): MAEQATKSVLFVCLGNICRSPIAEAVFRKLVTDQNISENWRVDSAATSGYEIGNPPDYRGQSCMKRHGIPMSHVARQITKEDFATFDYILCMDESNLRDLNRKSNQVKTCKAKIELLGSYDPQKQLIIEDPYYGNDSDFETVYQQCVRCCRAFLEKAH

[12] = StAR promoter reporter inhibition counter-screen, dose response, counter-screen for LRH-1 inverse agonist project, cell-based, luminescence, luciferase reporter (AID 651969); type: functional
[13] = target: Steroidogenic factor 1 (Homo sapiens, UniProt Q13285); assay: Counterscreen for inverse agonists of the liver receptor homolog-1 (LRH-1; NR5A2): Luminescence-based cell-based high throughput dose response assay to identify inverse agonists of the Steroidogenic Factor 1 Nuclear Receptor (SF1; NR5A1).; type: functional
[14] = target: Nuclear receptor subfamily 5 group A member 2 (Homo sapiens, UniProt O00482); type: functional, cell-based;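 further: HEK293T cells transfected with LRH-1 and a StAR promoter luciferase reporter; potency for inhibitors that lower LRH-1 driven reporter light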
[15] = cytotoxicity in NIH3T3 fibroblasts, dose response, cytotoxicity control for HSP40 inhibitor project, cell-based, CellTiter-Glo luminescence, cherry-pick, set 2 (AID 624265); type: functional
[16] = target: Nonstructural protein 1 (Influenza A virus, UniProt Q194T2); type: functional, Influenza A virus (A/California/07/2009(H1N1))
Nonstructural protein 1, sequence (Q194T2 whole entry): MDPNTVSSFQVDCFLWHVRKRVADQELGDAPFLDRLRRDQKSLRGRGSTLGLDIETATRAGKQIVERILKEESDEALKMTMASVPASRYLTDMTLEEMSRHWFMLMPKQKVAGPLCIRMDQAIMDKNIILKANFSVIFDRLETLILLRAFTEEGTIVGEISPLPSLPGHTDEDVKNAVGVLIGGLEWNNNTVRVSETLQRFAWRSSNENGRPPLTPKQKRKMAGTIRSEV

[17] = target: T6, Histone-lysine N-methyltransferase NSD2 (Homo sapiens, UniProt O96028); type: biochemical
T6 sequence (O96028 whole entry): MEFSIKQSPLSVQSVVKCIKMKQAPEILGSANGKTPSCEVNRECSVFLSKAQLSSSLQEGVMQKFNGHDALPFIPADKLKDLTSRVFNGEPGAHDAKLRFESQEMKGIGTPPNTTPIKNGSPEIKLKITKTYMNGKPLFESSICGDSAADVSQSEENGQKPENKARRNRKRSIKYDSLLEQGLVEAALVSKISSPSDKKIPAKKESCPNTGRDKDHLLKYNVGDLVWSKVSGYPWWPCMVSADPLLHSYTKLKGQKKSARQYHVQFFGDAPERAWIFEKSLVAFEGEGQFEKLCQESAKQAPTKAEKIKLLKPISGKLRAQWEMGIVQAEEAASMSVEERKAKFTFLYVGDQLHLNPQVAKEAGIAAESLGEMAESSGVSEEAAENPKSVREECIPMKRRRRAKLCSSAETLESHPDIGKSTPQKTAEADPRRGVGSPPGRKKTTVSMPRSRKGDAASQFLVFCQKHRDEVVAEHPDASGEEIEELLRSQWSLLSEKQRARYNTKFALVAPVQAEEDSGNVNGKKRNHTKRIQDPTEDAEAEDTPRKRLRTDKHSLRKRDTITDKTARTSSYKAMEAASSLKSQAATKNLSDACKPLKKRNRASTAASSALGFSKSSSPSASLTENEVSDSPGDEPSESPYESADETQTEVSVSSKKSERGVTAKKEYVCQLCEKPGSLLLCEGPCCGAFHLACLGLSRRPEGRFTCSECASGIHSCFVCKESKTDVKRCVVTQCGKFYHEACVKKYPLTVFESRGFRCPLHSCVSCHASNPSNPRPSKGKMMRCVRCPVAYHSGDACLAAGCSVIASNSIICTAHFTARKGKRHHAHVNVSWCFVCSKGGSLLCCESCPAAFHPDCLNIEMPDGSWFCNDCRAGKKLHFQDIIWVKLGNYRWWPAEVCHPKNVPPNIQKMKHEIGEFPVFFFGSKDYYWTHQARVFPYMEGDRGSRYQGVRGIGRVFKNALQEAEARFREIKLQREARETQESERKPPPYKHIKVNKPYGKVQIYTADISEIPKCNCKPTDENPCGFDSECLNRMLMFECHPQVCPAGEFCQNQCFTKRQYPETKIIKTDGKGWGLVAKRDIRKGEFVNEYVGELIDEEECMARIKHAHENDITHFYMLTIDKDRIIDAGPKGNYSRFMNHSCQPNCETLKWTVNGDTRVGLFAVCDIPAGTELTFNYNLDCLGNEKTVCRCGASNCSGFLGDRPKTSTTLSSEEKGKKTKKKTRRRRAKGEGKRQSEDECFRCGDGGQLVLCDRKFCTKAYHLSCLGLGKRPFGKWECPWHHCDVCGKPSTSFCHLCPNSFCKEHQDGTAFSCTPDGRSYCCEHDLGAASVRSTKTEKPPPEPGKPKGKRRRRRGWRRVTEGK

[18] = target: Neurotensin receptor type 1 (Homo sapiens, UniProt P30989); type: functional;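 further: Image-based confirmatory dose-response assay measuring agonist activity at NTR1; NTR1-expressing U2OS osteosarcoma cells imaged for beta-arrestin GFP spot formation; agonist potency where compounds increase beta-arrestin recruitment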
Neurotensin receptor type 1, sequence (P30989 whole entry): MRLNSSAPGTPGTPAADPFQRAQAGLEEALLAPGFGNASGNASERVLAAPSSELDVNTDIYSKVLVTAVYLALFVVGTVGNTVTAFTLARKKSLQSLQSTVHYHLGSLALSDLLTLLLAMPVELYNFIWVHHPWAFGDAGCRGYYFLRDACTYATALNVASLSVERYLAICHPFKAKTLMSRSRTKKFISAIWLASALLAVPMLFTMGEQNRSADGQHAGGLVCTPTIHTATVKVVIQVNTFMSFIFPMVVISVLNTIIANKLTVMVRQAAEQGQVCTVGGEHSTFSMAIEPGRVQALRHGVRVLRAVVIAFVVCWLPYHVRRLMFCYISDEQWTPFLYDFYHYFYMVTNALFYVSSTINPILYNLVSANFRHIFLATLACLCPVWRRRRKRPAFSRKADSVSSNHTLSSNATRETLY

[19] = target: DNA repair and recombination protein RAD54-like (Homo sapiens, UniProt Q92698); assay: inhibitors of human RAD54 branch migration, confirmation, biochemical, fluorescence, cherry-picked samples, dose series (AID 651657); type: functional
DNA repair and recombination protein RAD54-like, sequence (Q92698 whole entry): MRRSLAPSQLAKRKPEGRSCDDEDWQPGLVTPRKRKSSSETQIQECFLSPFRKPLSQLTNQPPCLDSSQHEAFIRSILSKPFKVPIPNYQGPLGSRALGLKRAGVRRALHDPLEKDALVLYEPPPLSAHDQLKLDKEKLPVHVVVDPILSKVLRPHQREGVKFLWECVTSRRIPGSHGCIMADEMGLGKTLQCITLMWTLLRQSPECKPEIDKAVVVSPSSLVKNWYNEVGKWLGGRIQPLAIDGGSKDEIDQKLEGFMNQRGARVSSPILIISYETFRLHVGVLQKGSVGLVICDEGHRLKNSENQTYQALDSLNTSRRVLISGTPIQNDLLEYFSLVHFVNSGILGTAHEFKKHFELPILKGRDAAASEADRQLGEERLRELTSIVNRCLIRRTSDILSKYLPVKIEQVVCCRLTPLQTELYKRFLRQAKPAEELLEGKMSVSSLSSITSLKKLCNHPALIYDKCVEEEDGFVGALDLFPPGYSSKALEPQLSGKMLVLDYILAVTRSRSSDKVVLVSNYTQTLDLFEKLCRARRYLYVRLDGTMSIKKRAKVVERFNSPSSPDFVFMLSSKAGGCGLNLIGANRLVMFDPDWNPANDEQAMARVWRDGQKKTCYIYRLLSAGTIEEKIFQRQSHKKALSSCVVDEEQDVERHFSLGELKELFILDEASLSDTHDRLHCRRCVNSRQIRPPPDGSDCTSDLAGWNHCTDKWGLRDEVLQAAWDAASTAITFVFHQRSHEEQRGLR

[20] = MDA-MB-231 cell growth inhibition, dose response, cytotoxicity control for RAD54 inhibitor project, CellTiter-Glo luminescence, cherry-pick (AID 651692); type: functional, cell-based
[21] = target: T7, Protein disulfide-isomerase (Homo sapiens, UniProt P07237); assay: PDI inhibitors, insulin aggregation turbidity, dose response, biochemical, absorbance, cherry-picked samples (AID 602350); type: functional
T7 sequence (P07237 whole entry): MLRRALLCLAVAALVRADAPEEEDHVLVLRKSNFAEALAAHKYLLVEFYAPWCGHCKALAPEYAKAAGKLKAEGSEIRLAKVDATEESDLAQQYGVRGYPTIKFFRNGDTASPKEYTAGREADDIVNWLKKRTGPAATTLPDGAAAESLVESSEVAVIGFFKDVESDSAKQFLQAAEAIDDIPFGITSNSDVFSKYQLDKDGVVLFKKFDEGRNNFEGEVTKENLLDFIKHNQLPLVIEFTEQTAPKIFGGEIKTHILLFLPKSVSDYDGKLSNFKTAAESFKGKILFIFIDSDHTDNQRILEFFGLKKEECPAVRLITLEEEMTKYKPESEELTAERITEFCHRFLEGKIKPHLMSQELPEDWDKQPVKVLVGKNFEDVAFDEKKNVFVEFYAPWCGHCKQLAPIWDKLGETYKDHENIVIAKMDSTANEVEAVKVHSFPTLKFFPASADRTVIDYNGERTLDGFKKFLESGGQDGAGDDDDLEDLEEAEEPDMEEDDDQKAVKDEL

[22] = target: T7, Protein disulfide-isomerase; assay: PDI inhibitors, insulin turbidity readout, dose response, biochemical, absorbance, cherry-picked samples, set 2 (AID 624274); type: functional
[23] = target: Mu-type opioid receptor (Homo sapiens, UniProt P35372); type: functional, cell-based;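 further: U2OS cells with beta-arrestin recruitment to OPRM1 by beta-gal complementation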
[24] = target: 5-hydroxytryptamine receptor 2A (Mus musculus, UniProt P35363); type: functional, cell-based;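 further: CHO-K1 cells with tagged receptor and beta-arrestin; agonist potency measured as compound-induced activation of the receptor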
5-hydroxytryptamine receptor 2A, sequence (P35363 whole entry): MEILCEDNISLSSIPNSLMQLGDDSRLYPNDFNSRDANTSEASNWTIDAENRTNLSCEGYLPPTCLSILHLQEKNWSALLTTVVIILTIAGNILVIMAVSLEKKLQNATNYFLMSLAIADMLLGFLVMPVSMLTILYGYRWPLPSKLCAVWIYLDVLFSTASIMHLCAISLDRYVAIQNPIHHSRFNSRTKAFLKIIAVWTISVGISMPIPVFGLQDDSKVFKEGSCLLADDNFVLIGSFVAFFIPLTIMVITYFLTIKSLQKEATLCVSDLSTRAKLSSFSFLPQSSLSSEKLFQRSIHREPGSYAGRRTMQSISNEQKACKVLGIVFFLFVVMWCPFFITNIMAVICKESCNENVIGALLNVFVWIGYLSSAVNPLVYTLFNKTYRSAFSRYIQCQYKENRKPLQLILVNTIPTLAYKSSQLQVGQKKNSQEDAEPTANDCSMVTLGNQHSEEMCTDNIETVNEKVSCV

Structure (SMILES): COc1ccc(-n2c(SCC(N)=O)nc3sc4c(c3c2=O)CCN(C)C4)cc1
- IC50 [1]: 111 µM (inactive)

Structure (SMILES): O=C(/C=C/c1ccc(Br)cc1)NC(=S)Nc1ccc(S(=O)(=O)Nc2nccs2)cc1
- IC50 [2]: 5.22 µM (active)
- IC50 [3]: > 66.6 µM (inactive)
- IC50 [4]: 3.39 µM (active)
- IC50 [5]: 17.3 µM (active)

Structure (SMILES): NC(=O)c1cc2ccccc2o/c1=N\NC(=O)c1ccccc1O
- IC50 [6]: 90.7 µM (inactive)
- IC50 [7]: 7.89 µM (active)
- IC50 [8]: 5.39 µM (active)
- IC50 [9]: 6.57 µM (active)
- IC50 [10]: 1.93 µM (active)
- IC50 [11]: 24.2 µM (inactive)

Structure (SMILES): CCOc1ccc(NC(=O)CN2CCN(CC(=O)Nc3ccc(OC)cc3)CC2)cc1
- IC50 [12]: 35.9 µM (inactive)
- IC50 [13]: 3.07 µM (active)
- IC50 [14]: 18.1 µM (inactive)

Structure (SMILES): O=C1c2cccc(Cl)c2C(=O)c2c1cccc2N1CCCC1
- AbsAC35_uM [15]: 61.52 µM
- IC50 [16]: 8.7 µM (active)
- AC50 [17]: 2.51 µM (active)

Structure (SMILES): CCOC(=O)c1c(NC(C)=O)sc2c(OCC(O)CN(CC)CC)c(Br)ccc12 (centres undefined)
- EC50 [18]: 22.6 µM (inactive)
- AC50 [19]: 8.3 µM (active)
- AC50 [20]: 24.6 µM (active)

Structure (SMILES): COc1cccc(/C=N/NC(=O)CNC(=O)c2ccc3c(c2)OCCO3)c1O
- AC50 [21]: < 0.009 µM (active)
- AC50 [22]: 0.009 µM (active)

Structure (SMILES): COc1ccc(CN2CCN(c3ncccn3)CC2)c(OC)c1
- EC50 [23]: 92.5 µM (inactive)
- EC50 [24]: 0.322 µM (active)
